Results published in the supplement of paper PMC10307832.

Legend:
Assay in all cases: relative viability (nuclei count vs DMSO), 5 days (fraction); higher = more cells survive
Linsitinib + Alpelisib = compound: C[C@]1(O)C[C@@H](c2nc(-c3ccc4ccc(-c5ccccc5)nc4c3)c3c(N)nccn32)C1 [Linsitinib] + Cc1nc(NC(=O)N2CCC[C@H]2C(N)=O)sc1-c1ccnc(C(C)(C)C(F)(F)F)c1 [Alpelisib] (partner 2 µM)
Method in brief: (§1)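 A single step with final 0.05% Triton X-100, 1% formaldehyde and 1 ug/ml Hoechst fixed the cells and stained nuclei 5 days after treatment. Lung cancer cell lines in 1536-well plates had been treated by pin tool the day after seeding with one drug alone or a fixed anchor-drug dose plus five library-drug doses (not always all listed) in √10 steps, and nuclei were counted on 4× images. Relative viability is the ratio of nuclei in treated wells to nuclei in vehicle wells, taken as the median of duplicate plates.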

Linsitinib + Dasatinib = compound: C[C@]1(O)C[C@@H](c2nc(-c3ccc4ccc(-c5ccccc5)nc4c3)c3c(N)nccn32)C1 [Linsitinib] + Cc1nc(Nc2ncc(C(=O)Nc3c(C)cccc3Cl)s2)cc(N2CCN(CCO)CC2)n1 [Dasatinib] (partner 0.075 µM)
Method in brief: as §1

Ispinesib + Vorinostat = compound: Cc1ccc(C(=O)N(CCCN)[C@@H](c2nc3cc(Cl)ccc3c(=O)n2Cc2ccccc2)C(C)C)cc1 [Ispinesib] + O=C(CCCCCCC(=O)Nc1ccccc1)NO [Vorinostat] (partner 1 µM)
Method in brief: as §1

Linsitinib + Trametinib = compound: C[C@]1(O)C[C@@H](c2nc(-c3ccc4ccc(-c5ccccc5)nc4c3)c3c(N)nccn32)C1 [Linsitinib] + CC(=O)Nc1cccc(-n2c(=O)n(C3CC3)c(=O)c3c(Nc4ccc(I)cc4F)n(C)c(=O)c(C)c32)c1 [Trametinib] (partner 0.02 µM)
Method in brief: as §1

Cell Line	relative viability (Linsitinib + Alpelisib; first compound 0.01 µM)	relative viability (Linsitinib + Alpelisib; first compound 0.03162 µM)	relative viability (Linsitinib + Alpelisib; first compound 0.1 µM)	relative viability (Linsitinib + Alpelisib; first compound 0.3162 µM)	relative viability (Linsitinib + Alpelisib; first compound 1 µM)	relative viability (Linsitinib + Dasatinib; first compound 0.01 µM)	relative viability (Linsitinib + Dasatinib; first compound 0.03162 µM)	relative viability (Linsitinib + Dasatinib; first compound 0.1 µM)	relative viability (Linsitinib + Dasatinib; first compound 0.3162 µM)	relative viability (Linsitinib + Dasatinib; first compound 1 µM)	relative viability (Ispinesib + Vorinostat; first compound 0.001 µM)	relative viability (Ispinesib + Vorinostat; first compound 0.003162 µM)	relative viability (Ispinesib + Vorinostat; first compound 0.01 µM)	relative viability (Ispinesib + Vorinostat; first compound 0.03162 µM)	relative viability (Ispinesib + Vorinostat; first compound 0.1 µM)	relative viability (Linsitinib + Trametinib; first compound 0.01 µM)	relative viability (Linsitinib + Trametinib; first compound 0.1 µM)	relative viability (Linsitinib + Trametinib; first compound 0.3162 µM)	relative viability (Linsitinib + Trametinib; first compound 1 µM)	relative viability (Linsitinib + Trametinib; first compound 0.03162 µM)
NCI-H1395	0.945	0.915	1.24	0.962	0.957	0.425	0.372	0.399	0.441	0.43	0.754	0.871	0.385	0.386	0.421	1	1.05	0.961	1.03	
NCI-H1355	0.78	0.718	0.675	0.632	0.549	0.627	0.68	0.518	0.525	0.254	0.673	0.675	0.758	0.458	0.286	0.424	0.352	0.323	0.246	0.353
NCI-H1650						0.291	0.293	0.355	0.258	0.241	0.779	0.535	0.521	0.416	0.234	0.592	0.537	0.464	0.349	0.524
IA-LM	0.829	0.809	0.743	0.387	0.51						0.889	0.863	1.01	1.23	0.369					
NCI-H1666	0.847	0.869	0.769	0.452	0.477	0.854	0.767	0.853	0.64	0.473	1.11	1.05	1.08	1.07	0.84	0.8	0.904	0.644	0.594	0.907
HCC-78	0.413	0.439	0.26	0.312	0.261	0.365	0.437	0.238	0.554	0.265	0.422	0.49	0.459	0.404	0.414		0.698	0.736	0.578	0.913
H3255	0.605	0.858	0.732	0.591	0.771	0.347	0.369	0.347	0.334	0.344	0.79	1.09	0.804	0.479	0.413		0.593	0.528	0.579	0.664
NCI-H23	0.728	0.577	0.582	0.448	0.516	0.837	0.807	0.571	0.415	0.366	0.542	0.619	0.647	0.419	0.21	0.49	0.337	0.244	0.256	0.371
NCI-H1944	0.753	0.962	0.865	0.918	0.801	0.224	0.237	0.196	0.236	0.162	0.671	0.496	0.575	0.345	0.152	0.395	0.381	0.356	0.346	0.465
